Measurements as given in ChEMBL document CHEMBL3774317, “Design and synthesis of novel tamoxifen analogues that avoid CYP2D6 metabolism” (Eur J Med Chem, 2016).

Tests used:
Format in all cases: functional
[1] = Cytotoxicity against human RPMI8226 cells assessed as cell growth at 50 nM after 48 hrs by SRB assay; details: RPMI-8226, 48 h, read-out: Activity
[2] = system: U-251; test: Cytotoxicity against human U251 cells assessed as cell growth at 5 nM after 48 hrs by SRB assay; details: U-251, 48 h, read-out: Activity
[3] = system: T47D; test: Cytotoxicity against human T47D cells assessed as cell growth at 5 uM after 48 hrs by SRB assay; details: read-out: Activity
[4] = Cytotoxicity against human DU145 cells assessed as cell growth at 0.5 uM after 48 hrs by SRB assay; details: DU-145, 48 h, read-out: Activity
[5] = Cytotoxicity against human MOLT4 cells assessed as cell growth at 50 uM after 48 hrs by SRB assay; details: MOLT-4, 48 h, read-out: Activity
[6] = Cytotoxicity against human RXF393 cells assessed as cell growth at 50 nM after 48 hrs by SRB assay; details: RXF 393, 48 h, read-out: Activity
[7] = Cytotoxicity against human HL-60(TB) cells assessed as cell growth at 5 nM after 48 hrs by SRB assay; details: HL-60, 48 h, read-out: Activity
[8] = system: T47D; test: Cytotoxicity against human T47D cells assessed as cell growth at 0.5 uM after 48 hrs by SRB assay; details: read-out: Activity
[9] = Cytotoxicity against human COLO205 cells assessed as cell growth at 5 nM after 48 hrs by SRB assay; details: COLO 205, 48 h, read-out: Activity
[10] = Cytotoxicity against human Hs 578T cells assessed as cell growth at 50 nM after 48 hrs by SRB assay; details: read-out: Activity
[11] = Cytotoxicity against human HOP92 cells assessed as cell growth at 5 nM after 48 hrs by SRB assay; details: HOP-92, 48 h, read-out: Activity
[12] = Cytotoxicity against human HCC2998 cells assessed as cell growth at 5 uM after 48 hrs by SRB assay; details: HCC 2998, 48 h, read-out: Activity
[13] = system: NCI-H322M; test: Cytotoxicity against human NCI-H322M cells assessed as cell growth at 10^-6 M after 48 hrs by SRB assay; details: read-out: Activity
[14] = Cytotoxicity against human DU145 cells assessed as cell growth at 10^-8 M after 48 hrs by SRB assay; details: DU-145, 48 h, read-out: Activity
[15] = Cytotoxicity against human HCT116 cells assessed as cell growth at 10^-7 M after 48 hrs by SRB assay; details: HCT-116, 48 h, read-out: Activity
[16] = system: NCI-H460; test: Cytotoxicity against human NCI-H460 cells assessed as cell growth at 10^-8 M after 48 hrs by SRB assay; details: NCI-H460, 48 h, read-out: Activity
[17] = Cytotoxicity against human HCT15 cells assessed as cell growth at 10^-4 M after 48 hrs by SRB assay; details: HCT-15, 48 h, read-out: Activity
[18] = system: SR; test: Cytotoxicity against human SR cells assessed as cell growth at 10^-5 M after 48 hrs by SRB assay; details: read-out: Activity
[19] = Cytotoxicity against human TK10 cells assessed as cell growth at 10^-7 M after 48 hrs by SRB assay; details: TK-10, 48 h, read-out: Activity
[20] = system: A498; test: Cytotoxicity against human A498 cells assessed as cell growth at 10^-8 M after 48 hrs by SRB assay; details: A498, 48 h, read-out: Activity
[21] = system: KM12; test: Cytotoxicity against human KM12 cells assessed as cell growth at 10^-4 M after 48 hrs by SRB assay; details: KM12, 48 h, read-out: Activity
[22] = Cytotoxicity against human HL-60(TB) cells assessed as cell growth at 10^-7 M after 48 hrs by SRB assay; details: HL-60, 48 h, read-out: Activity
[23] = Cytotoxicity against human SW620 cells assessed as cell growth at 10^-7 M after 48 hrs by SRB assay; details: SW-620, 48 h, read-out: Activity

## CCCCCCCCCC(=O)Oc1ccc(/C(=C(/C)c2ccccc2)c2ccc(OCCN3CCCC3)cc2)cc1
[1]
  growth at 0.05 µM: 100%
[2]
  growth at 0.005 µM: 98%
[3]
  growth at 5 µM: 52%
[4]
  growth at 0.5 µM: 81%
[5]
  growth at 50 µM: -53%
[6]
  growth at 0.05 µM: 100%
[7]
  growth at 0.005 µM: 101%
[8]
  growth at 0.5 µM: 46%
[9]
  growth at 0.005 µM: 104%
[10]
  growth at 0.05 µM: 92%
[11]
  growth at 0.005 µM: 86%
[12]
  growth at 5 µM: 90%

## C/C(=C(/c1ccc(O)cc1)c1ccc(OCCN2CCCC2)cc1)c1ccccc1
[13]
  growth at 1 µM: 90%
[14]
  growth at 0.01 µM: 98%
[15]
  growth at 0.1 µM: 101%
[16]
  growth at 0.01 µM: 106%
[17]
  growth at 100 µM: -100%
[18]
  growth at 10 µM: -25%
[19]
  growth at 0.1 µM: 94%
[20]
  growth at 0.01 µM: 66%
[21]
  growth at 100 µM: -89%
[22]
  growth at 0.1 µM: 99%
[23]
  growth at 0.1 µM: 103%
